Test results: patent publication US6506901B2, “Substituted 2-(S)-hydroxy-3-(piperidin-4-yl-methylamino)-propyl ethers and substituted 2-aryl-2-(R)-hydroxy-1-(piperidin-4-yl-methyl)-ethylamine β-3 adrenergic receptor agonists” (Wyeth, priority 2000, dated 2003)
pEC50: −log10 of the molar value.

Target: T1, human β3 receptors (Homo sapiens, UniProt P13945)
T1 construct: Full length β3 AR clones (402 amino acids) containing the last 6 amino acids of hβ3—AR; expressed in transfected cells; host or cells: CHO cells
T1 sequence (P13945 whole entry): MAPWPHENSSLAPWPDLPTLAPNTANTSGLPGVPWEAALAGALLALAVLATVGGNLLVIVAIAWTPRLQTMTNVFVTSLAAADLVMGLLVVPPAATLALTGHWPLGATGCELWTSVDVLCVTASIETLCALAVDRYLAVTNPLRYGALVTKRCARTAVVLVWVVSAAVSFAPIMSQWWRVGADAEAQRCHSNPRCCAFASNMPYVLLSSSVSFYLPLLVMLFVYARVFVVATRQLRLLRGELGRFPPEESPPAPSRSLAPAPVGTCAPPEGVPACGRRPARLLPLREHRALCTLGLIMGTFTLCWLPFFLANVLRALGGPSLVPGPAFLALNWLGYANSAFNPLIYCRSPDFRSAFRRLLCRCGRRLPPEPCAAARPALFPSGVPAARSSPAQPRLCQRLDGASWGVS
Test: cAMP response (SPA) in CHO cells expressing cloned human β3 adrenergic receptor
Assay type: cell-based
Settings: for pEC50: CHO cells expressing human β3 receptor, cAMP, 30 min incubation, 10^−9 M to 10^−5 M; for IA(β3): maximal response compared to the maximal response of isoproterenol at 10^−5 M
Procedure: Binding to the receptors was measured in Chinese Hamster ovary (CHO) cells that were transfected with adrenergic receptors.
Cloning of Human β3-AR Genomic DNA: cDNA was constructed by ligating four polymerase chain reaction (PCR) products using the following primers: an ATG-NarI fragment, sense primer 5′-[…]3′ and anti-sense primer 5′ […]3′; a NarI-AccI fragment, 5′ […]3′ as sense and 5′ […]3′ as anti-sense primer; an AccIi-StyI fragment, sense primer 5′ […]3′ and anti-sense primer 5′ […]3′ and a StyI-TAG fragment, with sense primer 5′ […]3′ and anti-sense primer 5′ […]3′. The corresponding primer sequences are described in Mantzoros, C. […] The four fragments are ligated into a pUC 18 plasmid (Gibco-BRL) and sequenced.
CHO cells were grown in 24-well tissue culture plates in Dulbecco's Modified Eagle Media with 10% fetal bovine serum, MEM non-essential amino acids, Penicillin-Streptompycin and Geneticin. […] Isoproterenol (10^−5 M) was used as an internal standard for comparison of activity. Cells were incubated at 37° C. on a rocker for 30 min with the β3 cells and 15 min for β1 and β2 cells. Incubation was stopped with the addition of 0.2N HCl and neutralized with 2.5N NaOH. The plates, containing the cells and neutralized media, were stored at −20 degrees celsius until ready to test for cAMP using the SPA test kit (Amersham).
Data Analysis and Results: Data collected from the SPA test procedure were analyzed as per cent of the maximal isoproterenol response at 10^−5 M. Activity curves were plotted using the SAS statistical and graphics software.

| SMILES | pEC50 | IA(β3) |
| --- | --- | --- |
| COC(=O)CCc1nc(-c2ccc(S(=O)(=O)N3CCC(CNC[C@H](O)c4ccc(O)c(NS(C)(=O)=O)c4)CC3)cc2)no1 [Example 104, 3-{3-[4-(4-{[(2R)-2-Hydroxy-2-(4-hydroxy-3-methanesulfonylamino-phenyl)-ethylamino]-methyl}-piperidine-1-sulfonyl)-phenyl]-[1,2,4]oxadiazol-5-yl}-propionic Acid Methyl Ester] | 8.10 | 1 |
| CS(=O)(=O)Nc1cc([C@@H](O)CNCC2CCN(c3ccc(S(=O)(=O)N4CCCCC4)cc3)CC2)ccc1O [Example 106, (R)-N-{2-Hydroxy-5-[1-hydroxy-2-({1-[4-(piperidine-1-sulfonyl)-phenyl]-piperidin-4-ylmethyl}-amino)-ethyl]-phenyl}-methanesulfonamide] | 9.00 | 0.97 |
| COC(=O)c1ccc(N2CCC(CNC[C@H](O)c3ccc(O)c(NS(C)(=O)=O)c3)CC2)nc1 [Example 107, Methyl 6-(4-{[((2R)-2-Hydroxy-2-{4-hydroxy-3-[(methylsulfonyl)amino]phenyl}-ethyl)amino]methyl}piperidin-1-yl)-nicotinate] | 8.00 | 1.2 |
| COC(=O)[C@@H]1CCCN1C(=O)Nc1ccc(S(=O)(=O)N2CCC(CNC[C@H](O)c3ccc(O)c(NS(C)(=O)=O)c3)CC2)cc1 [Example 111, (2S)-1-({4-[(4-{[((2R)-2-Hydroxy-2-{4-hydroxy-3-[(methylsulfonyl)amino]-phenyl}ethyl)amino]methyl}piperidin-1-yl)sulfonyl]anilino}carbonyl)pyrrolidine-2-carboxylic Acid Methyl Ester] | 7.02 | 0.9 |

Second part, the compound after the results:

| pEC50 | IA(β3) | SMILES |
| --- | --- | --- |
| 7.60 | 1 | COC(=O)c1cccc2c1ccn2-c1ccc(S(=O)(=O)N2CCC(CNC[C@H](O)c3ccc(O)c(NS(C)(=O)=O)c3)CC2)cc1 [Example 98, 1-[4-(4-{[(2R)-2-Hydroxy-2-(4-hydroxy-3-methanesulfonylamino-phenyl)-ethyl-amino]-methyl}-piperidine-1-sulfonyl)-phenyl]-1H-indole-4-carboxylic Acid Methyl Ester] |
| 8.05 | 1 | CS(=O)(=O)Nc1cc([C@@H](O)CNCC2CCN(S(=O)(=O)c3ccc(-n4ccc5c(C(=O)O)cccc54)cc3)CC2)ccc1O [Example 99, 1-[4-(4-{[(2R)-2-Hydroxy-2-(4-hydroxy-3-methanesulfonylamino-phenyl)-ethylamino]-methyl}-piperidine-1-sulfonyl)-phenyl]-1H-indole-4-carboxylic Acid] |
| 7.39 | 1 | CCOC(=O)c1cnn(-c2ccc(S(=O)(=O)N3CCC(CNC[C@H](O)c4ccc(O)c(NS(C)(=O)=O)c4)CC3)cc2)c1 [Example 100, Ethyl 1-{4-[(4-{[((2R)-2-Hydroxy-2-{4-hydroxy-3-[(methylsulfonyl)amino]-phenyl}ethyl)amino]methyl}piperidin-1-yl)sulfonyl]phenyl}-1H-pyrazole-4-carboxylate] |
| 7.37 | 0.93 | CS(=O)(=O)Nc1cc([C@@H](O)CNCC2CCN(S(=O)(=O)c3ccc(-n4cc(C(=O)O)cn4)cc3)CC2)ccc1O [Example 101, 1-{4-[(4-{[((2R)-2-Hydroxy-2-{4-hydroxy-3-[(methylsulfonyl)amino]-phenyl}ethyl)amino]methyl}piperidin-1-yl)sulfonyl]phenyl}-1H-pyrazole-4-carboxylic Acid] |
